Laboratory results taken from US20200239937A1, “BIOMARKERS FOR DIAGNOSING CONDITIONS” (The Council of the Queensland Institute of Medical Research, priority 2017, published 2020).
Residues, ends and D or L forms follow the SMILES beside them. *: point of attachment. Cbz = O=C(OCc1ccccc1)*

Experiments:
[1] = test system: G9a; experiment: G9a immunoblotting of nuclear extracts; type: cell-based
[2] = test system: G9a and pVHL; experiment: Co-immunoprecipitation of G9a and pVHL; type: cell-based; settings: MCF7 cells, immunoprecipitated with anti-HA
[3] = test system: G9a; experiment: Ubiquitination assay (His-ubiquitin pull-down, G9a immunoblot); type: cell-based; settings: MCF7 cells, DMOG 1 mM
Description: The ubiquitination assay was performed as described previously (Lee, Mol. Cell, 2012). Briefly, cells were transfected with expression constructs including His-tagged ubiquitin and treated with 5 μg/ml of MG132 for 4 hrs, lysed in buffer A (6 M guanidinium-HCl, 100 mM sodium phosphate, 10 mM Tris-HCl (pH 8.0), 5 mM imidazole, and 10 mM β-mercaptoethanol), and incubated with Ni^2+-NTA beads (QIAGEN) for 4 hrs at room temperature. The beads were then washed sequentially with buffer A, buffer B (8 M urea, 100 mM sodium phosphate buffer, 10 mM Tris-HCl (pH 8.0), and 10 mM β-mercaptoethanol), and buffer C (8 M urea, 100 mM sodium phosphate buffer, 10 mM Tris-HCl (pH 6.3), and 10 mM β-mercaptoethanol). Bound proteins were eluted with buffer D (200 mM imidazole, 150 mM Tris-HCl (pH 6.7), 30% glycerol, 0.72 M β-mercaptoethanol, and 5% SDS), and subject to immunoblot analysis.

[4] = test system: AT3 syngeneic mammary tumor; experiment: AT3 syngeneic mammary tumor growth in vivo; set-up: species or system C57BL/6 mice; settings: 5 mg/kg intraperitoneally every two days
Description: C57BL/6 mice were purchased from the ARC Animal Resources Center. Groups of 8 to 10 mice per experiment were used for experimental tumor assays to ensure adequate power to detect biologic differences. All experiments were approved by the QIMR Berghofer Medical Research Institute Animal Ethics Committee. A total of 1×10^6 AT3 tumor cells were subcutaneously injected into mice in a 100 μL volume (on day 0) and UNC0642 administered every two days between days 16 and day 36. Tumor growth was measured using a digital calliper, and tumor volumes are presented as mean±SEM.

[5] = test system: breast cancer cell motility (MCF7, MDA231); experiment: Scratch wound assay; type: cell-based
[6] = test system: breast cancer cell lines; experiment: Cell survival (MTT) in breast cancer cell lines; type: cell-based; settings: UNC0642 at 5 μM
Description: (§1) For proliferation studies, cells (5×10^3) were seeded in 96-place wells and allowed to attach overnight, and then incubated in fresh growth medium in the presence of either the G9a inhibitor UNC0642 (Sigma Aldrich) or the vehicle control DMSO (Sigma Aldrich). Proliferation was evaluated via real-time imaging using IncuCyte Zoom (Essen BioScience) or by performing SRB assays at the end of the treatment. For SRB assays, medium was aspirated and cells were fixed in methylated spirits before being washed with water and stained with SRB (Sigma Aldrich) solution (0.4% in 1% acetic acid). The intensity of the staining was obtained using an optical plate reader at 564 nm. Cell viability was determined using a 3-(4,5-dimethylthiazol-2-yl)-2,5-diphenyltetrazolium bromide ([…]) assay. Cells (3×10^3/well) were seeded directly into 96-well plates and allowed to adhere overnight. 96 hours after drug treatment, 20 μL of MU (5 mg/mL; Sigma-Aldrich) was added. The plates were incubated at 37° C. for 3 hrs before the supernatants were removed, and 100 μL of isopropanol was added to each well. The absorbance value (optical density) of each well was measured at 570 nm.

[7] = test system: Bre80 and MCF10A breast epithelial cells; experiment: Cell survival (MTT) in normal-like breast epithelial cells; type: cell-based; settings: UNC0642 at 5 μM
Description: as §1

[8] = test system: MDA231; experiment: SRB assay, MDA231; type: cell-based; settings: MDA231, 48 hour treatment, normoxic and hypoxic conditions
Description: as §1

[9] = test system: 10 G9a-suppressed genes; experiment: Real-time qPCR of the 10 G9a-suppressed genes; type: cell-based; settings: versus control cells
Description: (§2) Quantitative RT-PCR and ChIP assays were conducted as previously described.
Briefly, total RNA was isolated using Trizol (Invitrogen) and reverse transcription was performed from 2.5 μg of total RNA using the Superscript III cDNA synthesis kit (Invitrogen). The abundance of mRNA was detected by an ABI VIIA7 system with SYBR Green Master Mix (Life Technologies). Primer pairs were designed to amplify 90-150 bp mRNA specific fragments and were confirmed as unique products by melting curve analysis. The quantity of mRNA was calculated using ΔΔCt method and normalized by using primers to detect HPRT. All reactions were performed in triplicates.

[10] = test system: H3K9me2 at promoters of G9a-repressed genes; experiment: ChIP of H3K9me2 on promoters of G9a-repressed genes; type: cell-based; settings: MCF7 cells, 3 μM UNC0642, hypoxia
Description: as §2

[11] = test system: MCF7 and MDA231 cells; experiment: Proliferation by IncuCyte Zoom real-time imaging; type: cell-based; settings: 48 hours
Description: as §1

[12] = test system: H3K9me2; experiment: Immunoblotting of global H3K9me2; type: cell-based; settings: MCF7 nuclear extracts, 6 hrs
[13] = test system: MCF7; experiment: SRB assay, MCF7; type: cell-based; settings: MCF7, 48 hour treatment, normoxic and hypoxic conditions
Description: as §1

SMILES: CC(C)C[C@@H](C=O)NC(=O)[C@H](CC(C)C)NC(=O)[C@H](CC(C)C)NC(=O)OCc1ccccc1 [MG132] (Cbz-Leu-Leu-Leu-aldehyde)
- G9a protein level ([1]; MCF7 cells, normoxia, 9 hrs, 20 μM MG132): increase in G9a protein level

SMILES: COC(=O)CNC(=O)C(=O)OC [DMOG, dimethyloxaloylglycine]
- interaction between G9a and pVHL [2]: significantly inhibited
- G9a protein levels ([1]; MCF7 and MDA231 cells, DMOG 1 mM, DFA 100 μM): increase in G9a protein levels
- level of G9a polyubiquitination [3]: markedly reduced

SMILES: COc1cc2c(NC3CCN(C(C)C)CC3)nc(N3CCC(F)(F)CC3)nc2cc1OCCCN1CCCC1 [UNC0642]
- mean tumor volume at end-point versus vehicle treated group [4]: significantly lower
- tumor growth ([4]; days 16 to 36): significantly reduced tumor growth
- wound closure ([5]; hypoxic condition, 72 hours): not able to close the wound even after 72 hours
- cellular migration (denuded area versus vehicle control) ([5]; normoxic condition): inhibit cellular migration
- survival of cancer cell lines [6]: significantly attenuated
- cell survival [7]: unaffected
- cells present after treatment [8]: less than 20%
- hypoxia repression of expression of the 10 G9a-suppressed genes [9]: repression was abolished
- hypoxia-mediated increase in H3K9me2 in promoters of G9a-repressed genes [10]: almost completely abrogated or significantly reduced
- confluency at the end of the experiment, fold less compared to vehicle control ([11]; 2-3 μM): 2 to 2.5 fold
- proliferation compared to vehicle control ([11]; various concentrations): dose-dependent reduction in proliferation
- global H3K9me2 [12]: significant reduction
- cells present after treatment [13]: less than 20%
